# In PubChem BioAssay AID1259411 (Chemical Carcinogenesis Research Information System (CCRIS), 2018):
# Active and inactive are the calls of the source. How the calls were made is not given here.
# Test system: rodent carcinogenicity bioassays, tumor incidence
# Experiment: CCRIS carcinogenicity studies
# Description: The CCRIS database contains chemical records with carcinogenicity, mutagenicity, tumor promotion, and tumor inhibition test results. It was developed by the National Cancer Institute (NCI). Data are derived from studies cited in primary journals, current awareness tools, NCI reports, and other sources. Test results have been reviewed by experts in carcinogenesis and mutagenesis.
# CCRIS provides historical information from the years 1985 - 2011. It is no longer updated.
# This is an archive assay for CCRIS carcinogenicity studies.
smiles,measurement,setting,value
N#Cc1c(Cl)c(Cl)c(Cl)c(C#N)c1Cl,carcinogen call,"Species: MOUSE, Strain/Sex: B6C3F1/FEMALE, Route: ORAL, Dose: 0, 3000, 6000 PPM IN DIET, TWA, Dose: 0, 3000, 6000 PPM IN DIET, TWA",inactive; negative
same,carcinogen call,"Species: MOUSE, Strain/Sex: B6C3F1/MALE, Route: ORAL, Dose: 0, 2688, 5375 PPM IN DIET, TWA, Dose: 0, 2688, 5375 PPM IN DIET, TWA",inactive; negative
same,carcinogen call,"Species: Mouse, Strain/Sex: CD-1/Female (60 per group), Route: Oral, Dose: 0, 750, 1,500, 3,000 ppm in diet for 2 yr, Dose: 0, 750, 1,500, 3,000 ppm in diet for 2 yr, Tumor Site: Type of Lesion: Forestomach: Squamous cell papillomas or carcinomas (0, 2, 6, 5), No dose response",active; positive (ca dpr describes as possible adverse effect; study details not given i
same,carcinogen call,"Species: Mouse, Strain/Sex: CD-1/Male (60 per group), Route: Oral, Dose: 0, 750, 1,500, 3,000 ppm in diet for 2 yr, Dose: 0, 750, 1,500, 3,000 ppm in diet for 2 yr, Tumor Site: Type of Lesion: Kidney: renal tubular adenoma or carcinoma (0, 6, 4, 4). Forestomach: Squamous cell papillomas or carcinomas (0, 2, 5, 2",active; positive without dose response (ca dpr describes as possible adverse effect); st
same,carcinogen call,"Species: RAT, Strain/Sex: OSBORNE-MENDEL/FEMALE, Route: ORAL, Dose: 0, 5063, 10126 PPM IN DIET, TWA, Dose: 0, 5063, 10126 PPM IN DIET, TWA, Tumor Site: Type of Lesion: KIDNEY: ADENOMA OR CARCINOMA (NOS) OR TUBULAR CELL ADENOMA OR TUBULAR CELL ADENOCARCINOMA",active; positive
same,carcinogen call,"Species: RAT, Strain/Sex: OSBORNE-MENDEL/MALE, Route: ORAL, Dose: 0, 5063, 10126 PPM IN DIET, TWA, Dose: 0, 5063, 10126 PPM IN DIET, TWA, Tumor Site: Type of Lesion: KIDNEY: CARCINOMA (NOS) OR TUBULAR CELL ADENOMA OR TUBULAR CELL ADENOCARCINOMA OR ADENOCARCINOMA OR PAPILLARY ADENOMA",active; positive
same,carcinogen call,"Species: Rat, Strain/Sex: Fischer 344/Female (55 per group), Route: Oral, Dose: 0, 1.8, 3.8, 15.2, 183 mg/kg/day in diet for 125 wks, Dose: 0, 1.8, 3.8, 15.2, 183 mg/kg/day in diet for 125 wks, Tumor Site: Type of Lesion: Kidney: Renal tubular adenomas and carcinomas (0, 0, 0, 0, 32 in 53-55 animals). Forestomach: Papillomas and carcinomas",active; positive (study details not given in source)
same,carcinogen call,"Species: Rat, Strain/Sex: Fischer 344/Male (55 per group), Route: Oral, Dose: 0, 1.8, 3.8, 15.2, 183 mg/kg/day in diet for 99 wks (high dose) or 111 wk (all others), Dose: 0, 1.8, 3.8, 15.2, 183 mg/kg/day in diet for 99 wks (high dose) or 111 wk (all others), Tumor Site: Type of Lesion: Kidney: Renal tubular adenomas and carcinomas (1, 1, 1, 4, 23 in 53-55 animals) Forestomach: Papillomas and carcinomas (",active; positive (study details not given in source)
same,carcinogen call,"Species: Rat, Strain/Sex: Sprague-Dawley/Female (50 per group), Route: Oral, Dose: 0, 15, 60, 240, 1,200 mg/kg/day in diet for 2 yr, Dose: 0, 15, 60, 240, 1,200 mg/kg/day in diet for 2 yr, Tumor Site: Type of Lesion: Forestomach: Papillomas or carcinomas (0, 0, 0, 2, 1), Not significant",inactive; negative (ca dpr describes as possible adverse effect; study details not given i
same,carcinogen call,"Species: Rat, Strain/Sex: Sprague-Dawley/Male (50 per group), Route: Oral, Dose: 0, 15, 60, 240, 1,200 mg/kg/day in diet for 2 yr, Dose: 0, 15, 60, 240, 1,200 mg/kg/day in diet for 2 yr, Tumor Site: Type of Lesion: Forestomach: Papillomas or carcinomas (0, 0, 0, 0, 3), Borderline significance",active; positive at highest dose (ca dpr describes as possible adverse effect; study det
ClC/C=C/CCl,carcinogen call,"Species: RAT, Strain/Sex: CD/MALE, Route: INHALATION, Dose: 0, 0.1, 0.3, 1.0 PPM 6 HR/D 5 D/WK FOR 86 WK (STUDY DURATION: 86 WK), Dose: 0, 0.1, 0.3, 1.0 PPM 6 HR/D 5 D/WK FOR 86 WK (STUDY DURATION: 86 WK), Tumor Site: Type of Lesion: NASAL CAVITY: ADENOMA, ADENOCARCINOMA, CARCINOSARCOMA, MIXED CARCINOMA",active; positive
same,carcinogen call,"Species: Rat, Strain/Sex: CD BR/Female (140/group), Route: Inhalation, Dose: 0, 0.5 6 hr/d for 2 yr, 5 ppm 6 hr/d lowered to 2.5 ppm after 7 mo and continued an additional 5 mo with a 1-yr maintena, Dose: 0, 0.5 6 hr/d for 2 yr, 5 ppm 6 hr/d lowered to 2.5 ppm after 7 mo and continued an additional 5 mo with a 1-yr maintena, Tumor Site: Type of Lesion: Nasal Passages: Benign (0 (0%), 23 (18%), 5 (3.9%)) and malignant tumors (0 (0%), 2 (1.6%), 113 (88.3%))",active; positive
same,carcinogen call,"Species: Rat, Strain/Sex: CD BR/Male (140/group), Route: Inhalation, Dose: 0, 0.5 6 hr/d for 2 yr, 5 ppm 6 hr/d lowered to 2.5 ppm after 7 mo and continued an additional 5 mo with a 1-yr maintena, Dose: 0, 0.5 6 hr/d for 2 yr, 5 ppm 6 hr/d lowered to 2.5 ppm after 7 mo and continued an additional 5 mo with a 1-yr maintena, Tumor Site: Type of Lesion: Nasal Passages: Benign (0 (0%), 33 (25.4%), 2 (1.6%)) and malignant tumors (0 (0%), 11 (8.5%), 114 (88.4%))",active; positive
Nc1ccc(N=Nc2ccccc2)c(N)c1,carcinogen call,"Species: MOUSE, Route: ORAL, Tumor Site: Type of Lesion: HEMATOPOIETIC SYSTEM (LEUKEMIA), LYMPHATIC SYSTEM: LYMPHOMA, LIVER, Tumor Site: Type of Lesion: HEMATOPOIETIC SYSTEM (LEUKEMIA), LYMPHATIC SYSTEM: LYMPHOMA, LIVER",active; positive
Clc1cccc(-c2cc(Cl)cc(Cl)c2)c1,carcinogen call,"Species: RAT, Strain/Sex: SPRAGUE-DAWLEY/FEMALE, Route: ORAL, Dose: 0, 50, 100, 200 PPM IN DIET FOR THE DURATION OF STUDY (STUDY DURATION: 24 MO), Dose: 0, 50, 100, 200 PPM IN DIET FOR THE DURATION OF STUDY (STUDY DURATION: 24 MO), Tumor Site: Type of Lesion: LIVER: TUMOR",active; positive
same,carcinogen call,"Species: RAT, Strain/Sex: SPRAGUE-DAWLEY/MALE, Route: ORAL, Dose: 0, 50, 100, 200 PPM IN DIET FOR THE DURATION OF STUDY (STUDY DURATION: 24 MO), Dose: 0, 50, 100, 200 PPM IN DIET FOR THE DURATION OF STUDY (STUDY DURATION: 24 MO)",inactive; negative
[Cd],carcinogen call,"Species: HUMAN, Route: INHALATION, ORAL, DERMAL, Tumor Site: Type of Lesion: PROSTATE GLAND",active; positive
same,carcinogen call,"Species: RAT, Strain/Sex: F344/MALE,FEMALE, Route: INTRAMUSCULAR, Dose: 5 MG GIVEN IN 2 INJECTIONS AT MONTHLY INTERVALS (STUDY DURATION: 12 MO), Tumor Site: Type of Lesion: INJECTION SITE: FIBROSARCOMA",active; positive
same,carcinogen call,"Species: RAT, Strain/Sex: LONG-EVANS/FEMALE, Route: INTRAMUSCULAR, Dose: 14, 28 MG, Tumor Site: Type of Lesion: INJECTION SITE: RHABDOMYOSARCOMA, FIBROSARCOMA",active; positive
CC1CN(N=O)CC(C)N1C(=O)c1ccccc1 (configuration not stated),carcinogen call,"Species: RAT, Strain/Sex: F344/FEMALE, Route: ORAL, Dose: 0, 172 MG/L IN DRINKING WATER 5 D/WK FOR 50 WK, STUDY DURATION: 120-130 WK, Dose: 0, 172 MG/L IN DRINKING WATER 5 D/WK FOR 50 WK, STUDY DURATION: 120-130 WK, Tumor Site: Type of Lesion: FORESTOMACH: PAPILLOMA OR CARCINOMA",active; positive
CCCCCCCCCCCCCC(=O)O[C@@H]1[C@@H](C)[C@@]2(O)[C@@H](C=C(CO)C[C@]3(O)C(=O)C(C)=C[C@@H]23)[C@@H]2C(C)(C)[C@]12OC(C)=O,carcinogen call,"Species: MOUSE, Strain/Sex: BALB/MALE, FEMALE, Route: DERMAL, Dose: 0, 18 NMOL IN ACETONE 1/WK FOR 17 MO (STUDY DURATION: 24 MO), Tumor Site: Type of Lesion: SKIN: SQUAMOUS CELL PAPILLOMA",active; positive
same,carcinogen call,"Species: MOUSE, Strain/Sex: HR-HR/MALE, FEMALE, Route: DERMAL, Dose: 0, 18 NMOL IN ACETONE 1/WK FOR 18 MO (STUDY DURATION: 24 MO)",inactive; negative
same,carcinogen call,"Species: MOUSE, Strain/Sex: HR/HR/MALE, FEMALE, Route: DERMAL, Dose: 0, 20, 40, 100, 1000, 1200, 1394 NMOL TOTAL DOSE WITH RESPECTIVE ADMINISTRATIONS OF 20 NMOL ONCE, 2 NMOL TWICE, 20 NMOL, Dose: 0, 20, 40, 100, 1000, 1200, 1394 NMOL TOTAL DOSE WITH RESPECTIVE ADMINISTRATIONS OF 20 NMOL ONCE, 2 NMOL TWICE, 20 NMOL, Tumor Site: Type of Lesion: SKIN: TUMOR",active; positive
CC(C)([CH2][Sn]([CH2]C(C)(C)c1ccccc1)([CH2]C(C)(C)c1ccccc1)[O][Sn]([CH2]C(C)(C)c1ccccc1)([CH2]C(C)(C)c1ccccc1)[CH2]C(C)(C)c1ccccc1)c1ccccc1,carcinogen call,"Species: Mouse, Strain/Sex: Unspecified strain/Female (96/Control group; 48/Experimental group), Route: Oral, Dose: 0, 50, 100, 300, 600 ppm of 97% fenbutatin oxide in the diet for 18 mo, study duration 18 mo, Dose: 0, 50, 100, 300, 600 ppm of 97% fenbutatin oxide in the diet for 18 mo, study duration 18 mo",inactive; negative
same,carcinogen call,"Species: Mouse, Strain/Sex: Unspecified strain/Male (96/Control group; 48/Experimental group), Route: Oral, Dose: 0, 50, 100, 300, 600 ppm of 97% fenbutatin oxide in the diet for 18 mo, study duration 18 mo, Dose: 0, 50, 100, 300, 600 ppm of 97% fenbutatin oxide in the diet for 18 mo, study duration 18 mo",inactive; negative
same,carcinogen call,"Species: Rat, Strain/Sex: Carworth Farm E/Female (96/Control group; 48/Experimental group), Route: Oral, Dose: 0, 50, 100, 300, 600 ppm of 97% fenbutatin oxide in the diet for 2 yr, study duration 2 yr, Dose: 0, 50, 100, 300, 600 ppm of 97% fenbutatin oxide in the diet for 2 yr, study duration 2 yr",inactive; negative
same,carcinogen call,"Species: Rat, Strain/Sex: Carworth Farm E/Male (96/Control group; 48/Experimental group), Route: Oral, Dose: 0, 50, 100, 300, 600 ppm of 97% fenbutatin oxide in the diet for 2 yr, study duration 2 yr, Dose: 0, 50, 100, 300, 600 ppm of 97% fenbutatin oxide in the diet for 2 yr, study duration 2 yr",inactive; negative
